Results as given in US8642585B2, “Indanyloxydihydrobenzofuranylacetic acids” (Boehringer Ingelheim International GmbH, priority 2012, dated 2014).

Target: human GPR40 receptor (Homo sapiens, UniProt O14842)
Assay: Assay II: IP1 accumulation (IPOne HTRF) in 1321N1 cells stably expressing human GPR40
Assay type: cell-based
Settings: 1321N1 cells expressing human GPR40, stimulation 1 h at 37° C., 5% CO2, LiCl 50 mM
Description: IP1 accumulation measurements using the IPOne assay system—1321N1 cells stably expressing human GPR40 receptor (Euroscreen, Belgium) are seeded 24 h before the assay in white 384-well plates in culture medium containing 10% FCS, 1% Na-Pyruvate and 400 μg/mL G418. IP1 is assayed according to the manufacturers description (Cisbio Bioassays, France). In brief, the assay is started by substitution of the culture medium by stimulation buffer (Hepes 10 mM, CaCl2 1 mM, MgCl2 0.5 mM, KCl 4.2 mM, NaCl 146 mM, glucose 5.5 mM and LiCl 50 mM, pH 7.4). Cells are stimulated for 1 h at 37° C., 5% CO2 by addition of the compounds that are diluted in stimulation buffer containing LiCl. Assays are stopped by adding HTRF-conjugates (IP1-d2 and Anti-IP1 cryptate Tb) and lysis buffer, provided by the manufacturer. After an incubation time of 1 h at room temperature plates are measured using an EnVision™, Perkin Elmer. The obtained fluorescence ratios at 665/615 nM are then used to calculate the pEC50 values using Assay Explorer 3.3 Software (Accelrys, Inc.) by interpolation using an IP1 reference curve and subsequent sigmoidal curve fitting allowing for a variable hill slope.

Sequence of human GPR40 receptor (O14842 whole entry): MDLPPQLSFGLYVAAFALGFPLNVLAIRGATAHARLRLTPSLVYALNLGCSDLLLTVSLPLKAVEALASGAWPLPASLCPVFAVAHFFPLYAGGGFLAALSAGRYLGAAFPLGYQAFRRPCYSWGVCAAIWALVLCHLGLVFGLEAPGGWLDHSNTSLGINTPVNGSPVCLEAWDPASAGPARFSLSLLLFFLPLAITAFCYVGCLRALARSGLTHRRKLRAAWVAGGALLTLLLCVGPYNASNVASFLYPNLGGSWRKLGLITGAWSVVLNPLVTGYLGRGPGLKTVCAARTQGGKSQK

Structure (SMILES) | EC50
Cc1cc(OC[C@@H]2CCS(=O)(=O)C2)cc(C)c1-c1ccc(F)c2c1CC[C@H]2Oc1ccc2c(c1)OC[C@H]2CC(=O)O (single isomer, unassigned) [Example 46] | 7 nM
Cc1cc(OC2CCC(C)(O)C2)cc(C)c1-c1ccc(F)c2c1CC[C@H]2Oc1ccc2c(c1)OC[C@H]2CC(=O)O (single isomer, unassigned) [Example 78] | 4 nM
Cc1cc(OC2CCC(C)(O)C2)cc(C)c1-c1ccc(F)c2c1CC[C@H]2Oc1ccc2c(c1)OC[C@H]2CC(=O)O (single isomer, unassigned) [Example 79] | 5 nM
Cc1cc(OC[C@@H](C)CS(C)(=O)=O)cc(C)c1-c1ccc(F)c2c1CC[C@H]2Oc1ccc2c(c1)OC[C@H]2CC(=O)O [Example 36, ((S)-6-{(R)-7-Fluoro-4-[4-((R)-3-methanesulfonyl-2-methyl-propoxy)-2,6-dimethyl-phenyl]-indan-1-yloxy}-2,3-dihydro-benzofuran-3-yl)-acetic acid] | 8 nM
Cc1cc(OC[C@H](C)CS(C)(=O)=O)cc(C)c1-c1ccc(F)c2c1CC[C@H]2Oc1ccc2c(c1)OC[C@H]2CC(=O)O [Example 37, ((S)-6-{(R)-7-Fluoro-4-[4-((S)-3-methanesulfonyl-2-methyl-propoxy)-2,6-dimethyl-phenyl]-indan-1-yloxy}-2,3-dihydro-benzofuran-3-yl)-acetic acid] | 6 nM
Cc1cc(OCCN2CCCS2(=O)=O)cc(C)c1-c1ccc(F)c2c1CC[C@H]2Oc1ccc2c(c1)OC[C@H]2CC(=O)O [Example 40] | 13 nM
Cc1cc(OC2CCS(=O)(=O)NC2)cc(C)c1-c1ccc(F)c2c1CC[C@H]2Oc1ccc2c(c1)OC[C@H]2CC(=O)O (stereo partly drawn) [Example 41, ((S)-6-{(R)-4-[4-(1,1-Dioxo-1-[1,2]thiazinan-4-yloxy)-2,6-dimethyl-phenyl]-7-fluoro-indan-1-yloxy}-2,3-dihydro-benzofuran-3-yl)-acetic acid] | 18 nM
Cc1cc(OC2CCS(=O)(=O)N(C)C2)cc(C)c1-c1ccc(F)c2c1CC[C@H]2Oc1ccc2c(c1)OC[C@H]2CC(=O)O (stereo partly drawn) [Example 42, ((S)-6-{(R)-4-[2,6-Dimethyl-4-(2-methyl-1,1-dioxo-1-[1,2]thiazinan-4-yloxy)-phenyl]-7-fluoro-indan-1-yloxy}-2,3-dihydro-benzofuran-3-yl)-acetic acid] | 11 nM
Cc1cc(OCCCCS(C)(=O)=O)cc(C)c1-c1ccc(F)c2c1CC[C@H]2Oc1ccc2c(c1)OC[C@H]2CC(=O)O [Example 43, ((S)-6-{(R)-7-Fluoro-4-[4-(4-methanesulfonyl-butoxy)-2,6-dimethyl-phenyl]-indan-1-yloxy}-2,3-dihydro-benzofuran-3-yl)-acetic acid] | 22 nM
Cc1cc(O[C@@H]2CCN(S(C)(=O)=O)C2)cc(C)c1-c1ccc(F)c2c1CC[C@H]2Oc1ccc2c(c1)OC[C@H]2CC(=O)O [Example 44, ((S)-6-{(R)-7-Fluoro-4-[4-((R)-1-methanesulfonyl-pyrrolidin-3-yloxy)-2,6-dimethyl-phenyl]-indan-1-yloxy}-2,3-dihydro-benzofuran-3-yl)-acetic acid] | 17 nM
Cc1cc(OCC(C)(C)S(C)(=O)=O)cc(C)c1-c1ccc(F)c2c1CC[C@H]2Oc1ccc2c(c1)OC[C@H]2CC(=O)O [Example 45, ((S)-6-{(R)-7-Fluoro-4-[4-(2-methanesulfonyl-2-methyl-propoxy)-2,6-dimethyl-phenyl]-indan-1-yloxy}-2,3-dihydro-benzofuran-3-yl)-acetic acid] | 9 nM
Cc1cc(OC2CCN(S(C)(=O)=O)CC2)cc(C)c1-c1ccc(F)c2c1CC[C@H]2Oc1ccc2c(c1)OC[C@H]2CC(=O)O [Example 48, ((S)-6-{(R)-7-Fluoro-4-[4-(1-methanesulfonyl-piperidin-4-yloxy)-2,6-dimethyl-phenyl]-indan-1-yloxy}-2,3-dihydro-benzofuran-3-yl)-acetic acid] | 14 nM
Cc1cc(O[C@@H]2CCCN(S(C)(=O)=O)C2)cc(C)c1-c1ccc(F)c2c1CC[C@H]2Oc1ccc2c(c1)OC[C@H]2CC(=O)O [Example 49, ((S)-6-{(R)-7-Fluoro-4-[4-((R)-1-methanesulfonyl-piperidin-3-yloxy)-2,6-dimethyl-phenyl]-indan-1-yloxy}-2,3-dihydro-benzofuran-3-yl)-acetic acid] | 10 nM
Cc1cc(O[C@H]2CCCN(S(C)(=O)=O)C2)cc(C)c1-c1ccc(F)c2c1CC[C@H]2Oc1ccc2c(c1)OC[C@H]2CC(=O)O [Example 50, ((S)-6-{(R)-7-Fluoro-4-[4-((S)-1-methanesulfonyl-piperidin-3-yloxy)-2,6-dimethyl-phenyl]-indan-1-yloxy}-2,3-dihydro-benzofuran-3-yl)-acetic acid] | 20 nM
Cc1cc(OCC2CCCS(=O)(=O)C2)cc(C)c1-c1ccc(F)c2c1CC[C@H]2Oc1ccc2c(c1)OC[C@H]2CC(=O)O (stereo partly drawn) [Example 51, ((S)-6-{(R)-4-[4-(1,1-Dioxo-hexahydro-1-thiopyran-3-ylmethoxy)-2,6-dimethyl-phenyl]-7-fluoro-indan-1-yloxy}-2,3-dihydro-benzofuran-3-yl)-acetic acid] | 7 nM
Cc1cc(C(=O)NCC(C)(C)O)cc(C)c1-c1ccc(F)c2c1CC[C@H]2Oc1ccc2c(c1)OC[C@H]2CC(=O)O [Example 54, ((S)-6-{(R)-7-Fluoro-4-[4-(2-hydroxy-2-methyl-propylcarbamoyl)-2,6-dimethyl-phenyl]-indan-1-yloxy}-2,3-dihydro-benzofuran-3-yl)-acetic acid] | 13 nM
Cc1cc(OC(C)(C)CO)cc(C)c1-c1ccc(F)c2c1CC[C@H]2Oc1ccc2c(c1)OC[C@H]2CC(=O)O [Example 55, ((S)-6-{(R)-7-Fluoro-4-[4-(2-hydroxy-1,1-dimethyl-ethoxy)-2,6-dimethyl-phenyl]-indan-1-yloxy}-2,3-dihydro-benzofuran-3-yl)-acetic acid] | 25 nM
Cc1cc(OC(C)(C)C(N)=O)cc(C)c1-c1ccc(F)c2c1CC[C@H]2Oc1ccc2c(c1)OC[C@H]2CC(=O)O [Example 56, ((S)-6-{(R)-4-[4-(1-Carbamoyl-1-methyl-ethoxy)-2,6-dimethyl-phenyl]-7-fluoro-indan-1-yloxy}-2,3-dihydro-benzofuran-3-yl)-acetic acid] | 43 nM
Cc1cc(OCC(C)(C)C#N)cc(C)c1-c1ccc(F)c2c1CC[C@H]2Oc1ccc2c(c1)OC[C@H]2CC(=O)O [Example 64, 2-((S)-6-((R)-4-(4-(2-Cyano-2-methylpropoxy)-2,6-dimethylphenyl)-7-fluoro-2,3-dihydro-1H-inden-1-yloxy)-2,3-dihydrobenzofuran-3-yl)acetic acid] | 8 nM
Cc1cc(OCC2(O)CCOCC2)cc(C)c1-c1ccc(F)c2c1CC[C@H]2Oc1ccc2c(c1)OC[C@H]2CC(=O)O [Example 66, 2-((S)-6-((R)-7-Fluoro-4-(4-((4-hydroxytetrahydro-2H-pyran-4-yl)methoxy)-2,6-dimethylphenyl)-2,3-dihydro-1H-inden-1-yloxy)-2,3-dihydrobenzofuran-3-yl)acetic acid] | 5 nM
Cc1cc(CCC(C)(C)O)cc(C)c1-c1ccc(F)c2c1CC[C@H]2Oc1ccc2c(c1)OC[C@H]2CC(=O)O [Example 67, 2-((S)-6-((R)-7-Fluoro-4-(4-(3-hydroxy-3-methylbutyl)-2,6-dimethylphenyl)-2,3-dihydro-1H-inden-1-yloxy)-2,3-dihydrobenzofuran-3-yl)acetic acid] | 7 nM
Cc1cc(OCC2(O)CCSCC2)cc(C)c1-c1ccc(F)c2c1CC[C@H]2Oc1ccc2c(c1)OC[C@H]2CC(=O)O [Example 68, 2-((S)-6-((R)-7-Fluoro-4-(4-((4-hydroxytetrahydro-2H-thiopyran-4-yl)methoxy)-2,6-dimethylphenyl)-2,3-dihydro-1H-inden-1-yloxy)-2,3-dihydrobenzofuran-3-yl)acetic acid] | 10 nM
Cc1cc(OCC2(O)CCS(=O)(=O)CC2)cc(C)c1-c1ccc(F)c2c1CC[C@H]2Oc1ccc2c(c1)OC[C@H]2CC(=O)O [Example 69, 2-((S)-6-((R)-7-Fluoro-4-(4-((1,1-dioxo-4-hydroxytetrahydro-2H-thiopyran-4-yl)methoxy)-2,6-dimethylphenyl)-2,3-dihydro-1H-inden-1-yloxy)-2,3-dihydrobenzofuran-3-yl)acetic acid] | 8 nM
Cc1cc(CCCS(C)(=O)=O)cc(C)c1-c1ccc(F)c2c1CC[C@H]2Oc1ccc2c(c1)OC[C@H]2CC(=O)O [Example 70, 2-((S)-6-((R)-4-(2,6-Dimethyl-4-(3-(methylsulfonyl)propyl)phenyl)-7-fluoro-2,3-dihydro-1H-inden-1-yloxy)-2,3-dihydrobenzofuran-3-yl)acetic acid] | 60 nM
Cc1cc(OCCNS(C)(=O)=O)cc(C)c1-c1ccc(F)c2c1CC[C@H]2Oc1ccc2c(c1)OC[C@H]2CC(=O)O [Example 71, 2-((S)-6-((R)-4-(2,6-Dimethyl-4-(2-(methylsulfonamido)ethoxy)phenyl)-7-fluoro-2,3-dihydro-1H-inden-1-yloxy)-2,3-dihydrobenzofuran-3-yl)acetic acid] | 28 nM
CC(=O)NCCc1cc(C)c(-c2ccc(F)c3c2CC[C@H]3Oc2ccc3c(c2)OC[C@H]3CC(=O)O)c(C)c1 [Example 72, 2-((S)-6-((R)-4-(4-(2-Acetamidoethyl)-2,6-dimethylphenyl)-7-fluoro-2,3-dihydro-1H-inden-1-yloxy)-2,3-dihydrobenzofuran-3-yl)acetic acid] | 23 nM
